{"source": "the OligoGym collection", "note": "Only the 19 paired bases of each siRNA are shown; overhangs and chemistry are not given here. Also: test concentration or dose not given here.", "data": [{"target": "PPIB", "test": "five studies, different assays", "conditions": "siRNA", "units": {"target inhibition": "%"}, "values": [{"substance": "sense CCAGGGGAGAUGGCACAGG / antisense CCUGUGCCAUCUCCCCUGG", "target inhibition": 21.4}, {"substance": "sense UUGUGGCCUUAGCUACAGG / antisense CCUGUAGCUAAGGCCACAA", "target inhibition": 16}, {"substance": "sense AGGGGAGAUGGCACAGGAG / antisense CUCCUGUGCCAUCUCCCCU", "target inhibition": 76.1}, {"substance": "sense UUAGCUACAGGAGAGAAAG / antisense CUUUCUCUCCUGUAGCUAA", "target inhibition": 30.7}, {"substance": "sense CGGUGAGCGCUUCCCCGAU / antisense AUCGGGGAAGCGCUCACCG", "target inhibition": 80.2}, {"substance": "sense UUUUGUGGCCUUAGCUACA / antisense UGUAGCUAAGGCCACAAAA", "target inhibition": 52}, {"substance": "sense GAGCGCUUCCCCGAUGAGA / antisense UCUCAUCGGGGAAGCGCUC", "target inhibition": 86.5}, {"substance": "sense UAAUCAAGGACUUCAUGAU / antisense AUCAUGAAGUCCUUGAUUA", "target inhibition": 87.9}, {"substance": "sense GCGCUUCCCCGAUGAGAAC / antisense GUUCUCAUCGGGGAAGCGC", "target inhibition": 92.7}, {"substance": "sense AUCAAGGACUUCAUGAUCC / antisense GGAUCAUGAAGUCCUUGAU", "target inhibition": 66.4}, {"substance": "sense CCAUCGUGUAAUCAAGGAC / antisense GUCCUUGAUUACACGAUGG", "target inhibition": 87.4}, {"substance": "sense CACCAGGGGAGAUGGCACA / antisense UGUGCCAUCUCCCCUGGUG", "target inhibition": 73.8}, {"substance": "sense AAGGAUUUGGCUACAAAAA / antisense UUUUUGUAGCCAAAUCCUU", "target inhibition": 81.9}, {"substance": "sense GAUGAGAACUUCAAACUGA / antisense UCAGUUUGAAGUUCUCAUC", "target inhibition": 89.7}, {"substance": "sense GCGGAGACUUCACCAGGGG / antisense CCCCUGGUGAAGUCUCCGC", "target inhibition": 76.6}, {"substance": "sense UCAAACUGAAGCACUACGG / antisense CCGUAGUGCUUCAGUUUGA", "target inhibition": 18.1}, {"substance": "sense GCUUCCCCGAUGAGAACUU / antisense AAGUUCUCAUCGGGGAAGC", "target inhibition": 67.8}, {"substance": "sense GGAGACUUCACCAGGGGAG / antisense CUCCCCUGGUGAAGUCUCC", "target inhibition": 80.9}, {"substance": "sense AAAGAGCAUCUACGGUGAG / antisense CUCACCGUAGAUGCUCUUU", "target inhibition": 50.7}, {"substance": "sense GAGGAAAGAGCAUCUACGG / antisense CCGUAGAUGCUCUUUCCUC", "target inhibition": 58.4}, {"substance": "sense AGCAUCUACGGUGAGCGCU / antisense AGCGCUCACCGUAGAUGCU", "target inhibition": 64.1}, {"substance": "sense GAGAAAGGAUUUGGCUACA / antisense UGUAGCCAAAUCCUUUCUC", "target inhibition": 92.3}, {"substance": "sense GAUGGCACAGGAGGAAAGA / antisense UCUUUCCUCCUGUGCCAUC", "target inhibition": 84.9}, {"substance": "sense CCCCGAUGAGAACUUCAAA / antisense UUUGAAGUUCUCAUCGGGG", "target inhibition": 84.7}, {"substance": "sense GGGAGAUGGCACAGGAGGA / antisense UCCUCCUGUGCCAUCUCCC", "target inhibition": 80.4}, {"substance": "sense AGAGCAUCUACGGUGAGCG / antisense CGCUCACCGUAGAUGCUCU", "target inhibition": 71.7}, {"substance": "sense UGGCACAGGAGGAAAGAGC / antisense GCUCUUUCCUCCUGUGCCA", "target inhibition": 55.9}, {"substance": "sense CAGGGCGGAGACUUCACCA / antisense UGGUGAAGUCUCCGCCCUG", "target inhibition": 46.8}, {"substance": "sense GAGAUGGCACAGGAGGAAA / antisense UUUCCUCCUGUGCCAUCUC", "target inhibition": 70.5}, {"substance": "sense UUCACCAGGGGAGAUGGCA / antisense UGCCAUCUCCCCUGGUGAA", "target inhibition": 17.6}, {"substance": "sense ACAGGAGAGAAAGGAUUUG / antisense CAAAUCCUUUCUCUCCUGU", "target inhibition": 84.9}, {"substance": "sense AAUUCCAUCGUGUAAUCAA / antisense UUGAUUACACGAUGGAAUU", "target inhibition": 87.4}, {"substance": "sense AAACAGCAAAUUCCAUCGU / antisense ACGAUGGAAUUUGCUGUUU", "target inhibition": 7.3}, {"substance": "sense ACAGGAGGAAAGAGCAUCU / antisense AGAUGCUCUUUCCUCCUGU", "target inhibition": 74.5}, {"substance": "sense AUGAUCCAGGGCGGAGACU / antisense AGUCUCCGCCCUGGAUCAU", "target inhibition": 48.5}, {"substance": "sense GGAUAAUUUUGUGGCCUUA / antisense UAAGGCCACAAAAUUAUCC", "target inhibition": 83.9}, {"substance": "sense AACAGUGGAUAAUUUUGUG / antisense CACAAAAUUAUCCACUGUU", "target inhibition": 16.3}, {"substance": "sense CAAGGACUUCAUGAUCCAG / antisense CUGGAUCAUGAAGUCCUUG", "target inhibition": 74.4}, {"substance": "sense AUUUGGCUACAAAAACAGC / antisense GCUGUUUUUGUAGCCAAAU", "target inhibition": 13.8}, {"substance": "sense GGAUUUGGCUACAAAAACA / antisense UGUUUUUGUAGCCAAAUCC", "target inhibition": 83.5}, {"substance": "sense UGUAAUCAAGGACUUCAUG / antisense CAUGAAGUCCUUGAUUACA", "target inhibition": 63.9}]}, {"target": "firefly luciferase", "test": "five studies, different assays", "conditions": "siRNA", "units": {"target inhibition": "%"}, "values": [{"substance": "sense GGUUUUGGAAUGUUUACUA / antisense UAGUAAACAUUCCAAAACC", "target inhibition": 93.3}, {"substance": "sense AGUCAAGUAACAACCGCGA / antisense UCGCGGUUGUUACUUGACU", "target inhibition": 88.5}, {"substance": "sense AAAAAGUUGCGCGGAGGAG / antisense CUCCUCCGCGCAACUUUUU", "target inhibition": 38.8}, {"substance": "sense AACUCGACGCAAGAAAAAU / antisense AUUUUUCUUGCGUCGAGUU", "target inhibition": 90.2}, {"substance": "sense GUACCGAAAGGUCUUACCG / antisense CGGUAAGACCUUUCGGUAC", "target inhibition": 80.4}, {"substance": "sense GCAUGCCAGAGAUCCUAUU / antisense AAUAGGAUCUCUGGCAUGC", "target inhibition": 94.5}, {"substance": "sense GUUGGCAGAAGCUAUGAAA / antisense UUUCAUAGCUUCUGCCAAC", "target inhibition": 93.1}, {"substance": "sense UUUGGAGCACGGAAAGACG / antisense CGUCUUUCCGUGCUCCAAA", "target inhibition": -10.4}, {"substance": "sense AAAACUCGACGCAAGAAAA / antisense UUUUCUUGCGUCGAGUUUU", "target inhibition": 94.6}, {"substance": "sense AGUUGCGCGGAGGAGUUGU / antisense ACAACUCCUCCGCGCAACU", "target inhibition": 93.6}, {"substance": "sense UUUGUGGACGAAGUACCGA / antisense UCGGUACUUCGUCCACAAA", "target inhibition": -18}, {"substance": "sense AAAGGUCUUACCGGAAAAC / antisense GUUUUCCGGUAAGACCUUU", "target inhibition": 71.1}, {"substance": "sense AAAAUCAGAGAGAUCCUCA / antisense UGAGGAUCUCUCUGAUUUU", "target inhibition": 88.4}, {"substance": "sense UUACGUCGCCAGUCAAGUA / antisense UACUUGACUGGCGACGUAA", "target inhibition": 92.9}, {"substance": "sense UACUACACUCGGAUAUUUG / antisense CAAAUAUCCGAGUGUAGUA", "target inhibition": 38.6}, {"substance": "sense UAUGCCGGUGUUGGGCGCG / antisense CGCGCCCAACACCGGCAUA", "target inhibition": 19.7}, {"substance": "sense UGGAGCACGGAAAGACGAU / antisense AUCGUCUUUCCGUGCUCCA", "target inhibition": 52.2}, {"substance": "sense GGAGGAGUUGUGUUUGUGG / antisense CCACAAACACAACUCCUCC", "target inhibition": 93.2}, {"substance": "sense AAAGAGAUCGUGGAUUACG / antisense CGUAAUCCACGAUCUCUUU", "target inhibition": 47.4}, {"substance": "sense UAAAGAAAGGCCCGGCGCC / antisense GGCGCCGGGCCUUUCUUUA", "target inhibition": 5.9}, {"substance": "sense CGGCGCCAUUCUAUCCGCU / antisense AGCGGAUAGAAUGGCGCCG", "target inhibition": 53.8}, {"substance": "sense GCUUCGAGCAGACAUGAUA / antisense UAUCAUGUCUGCUCGAAGC", "target inhibition": 97.7}, {"substance": "sense CCGCGAACGACAUUUAUAA / antisense UUAUAAAUGUCGUUCGCGG", "target inhibition": 94.9}, {"substance": "sense AGGUCUUACCGGAAAACUC / antisense GAGUUUUCCGGUAAGACCU", "target inhibition": 90.1}, {"substance": "sense GCCUGAAGUCUCUGAUUAA / antisense UUAAUCAGAGACUUCAGGC", "target inhibition": 95.6}, {"substance": "sense GAUGAUAAACCGGGCGCGG / antisense CCGCGCCCGGUUUAUCAUC", "target inhibition": 52.9}, {"substance": "sense GCACUCUGAUUGACAAAUA / antisense UAUUUGUCAAUCAGAGUGC", "target inhibition": 93}, {"substance": "sense GAUUACGUCGCCAGUCAAG / antisense CUUGACUGGCGACGUAAUC", "target inhibition": 96}, {"substance": "sense UGACGGAAAAAGAGAUCGU / antisense ACGAUCUCUUUUUCCGUCA", "target inhibition": 88.8}, {"substance": "sense AAAGACGAUGACGGAAAAA / antisense UUUUUCCGUCAUCGUCUUU", "target inhibition": 73.9}, {"substance": "sense UCAGAGAGAUCCUCAUAAA / antisense UUUAUGAGGAUCUCUCUGA", "target inhibition": 92.1}, {"substance": "sense GAUUAUGUCCGGUUAUGUA / antisense UACAUAACCGGACAUAAUC", "target inhibition": 96.8}, {"substance": "sense UGGACGAAGUACCGAAAGG / antisense CCUUUCGGUACUUCGUCCA", "target inhibition": 70.3}, {"substance": "sense ACGGAAAAAGAGAUCGUGG / antisense CCACGAUCUCUUUUUCCGU", "target inhibition": 58.8}, {"substance": "sense GAGUUGUGUUUGUGGACGA / antisense UCGUCCACAAACACAACUC", "target inhibition": 95.3}, {"substance": "sense CCCGCCGCCGUUGUUGUUU / antisense AAACAACAACGGCGGCGGG", "target inhibition": 42.3}, {"substance": "sense GAAGUCUCUGAUUAAGUAC / antisense GUACUUAAUCAGAGACUUC", "target inhibition": 34.7}, {"substance": "sense CUCGACGCAAGAAAAAUCA / antisense UGAUUUUUCUUGCGUCGAG", "target inhibition": 91}, {"substance": "sense CGAAGUACCGAAAGGUCUU / antisense AAGACCUUUCGGUACUUCG", "target inhibition": 93.1}, {"substance": "sense ACGUGCAAAAAAAGCUCCC / antisense GGGAGCUUUUUUUGCACGU", "target inhibition": 30}, {"substance": "sense AGAGAUCCUCAUAAAGGCC / antisense GGCCUUUAUGAGGAUCUCU", "target inhibition": 38.7}, {"substance": "sense UCCCGCCGCCGUUGUUGUU / antisense AACAACAACGGCGGCGGGA", "target inhibition": 43.8}, {"substance": "sense AAAGUUGCGCGGAGGAGUU / antisense AACUCCUCCGCGCAACUUU", "target inhibition": 95.5}, {"substance": "sense GUUGUUGUUUUGGAGCACG / antisense CGUGCUCCAAAACAACAAC", "target inhibition": 32.6}, {"substance": "sense CCGUUGUUGUUUUGGAGCA / antisense UGCUCCAAAACAACAACGG", "target inhibition": 89.3}, {"substance": "sense GACAAAUACGAUUUAUCUA / antisense UAGAUAAAUCGUAUUUGUC", "target inhibition": 86.5}, {"substance": "sense UACCGGAAAACUCGACGCA / antisense UGCGUCGAGUUUUCCGGUA", "target inhibition": 95.9}, {"substance": "sense GCACGGAAAGACGAUGACG / antisense CGUCAUCGUCUUUCCGUGC", "target inhibition": 39.2}]}]}
